Experimental data published in US10815460B2, “Three-dimensional differentiation of epiblast spheroids to kidney organoids models stage-specific epithelial physiology, morphogenesis, and disease” (THE BRIGHAM AND WOMEN'S HOSPITAL, INC., priority 2015, dated 2020).
“Also recorded” adds a separate entry of the source.

Assays:
Format in all cases: cell-based, human
hPSC spheroids = experiment: hPSC spheroid cavity formation (lumenogenesis) in 3D sandwich culture
Excerpt: Cell lines included H9 (WA09), BJ, HDFn, hLR5, hfib2-iPS4, and hfib2-iPS5 (human) and J1, R1, and v6 (mouse). Cells were maintained feeder-free on 3% Reduced Growth Factor GelTrex™ (Life Technologies) for at least one passage in media (mTeSR1 for hPSCs; […] supplement+2i in for mESCs; hESC conditioned media (CM)+leukemia inhibitory factor (LIF)+dox for hLR5 iPSCs) and dissociated with Accutase® or TrypLE™. LD-iPSCs were derived from native hLR5 iPSCs by withdrawing LIF and doxycycline and substituting with FGF2. For thin gel sandwich colonies, cells were plated at 60,000 (primed) or 30,000 (native) cells/well of a 24-well plate or 4-well chamber slide pre-coated with GelTrex™ in media supplemented with 10 μM Rho-kinase inhibitor Y27632 (StemGent). The following day the media was replaced with 500 μL 1.5% GelTrex™ in mTeSR1. Media was changed after 24 hours. […]
For fluorescence intensity quantifications, images were taken in a single imaging session and at identical exposures and processed identically. The number of cavitated colonies (ellipsoid with lumen) versus flat colonies (non-ellipsoid or without a lumen) was scored manually in phase contrast images of living cells, in which lumens were discerned more easily than in fixed samples. For apoptosis, cleaved caspase-3 expression was scored manually, confirmed by nuclear condensation, and divided by the total number of nuclei per wide-field epifluorescent image. […] For each colony, the summed ZO-1 expressing area was expressed as a percentage of the total surface area and then averaged. To quantify intensities, line scans of equal length were drawn through randomly selected structures imaged with identical exposures to obtain raw fluorescence values in NIS Elements software (Nikon). […] For CHIR-induced differentiation, […] individual cells were identified in low-magnification immunofluorescence images using Cell Profiler 2.0 and fluorescence intensities were measured automatically. […] Immunoblots were quantified using the ImageJ Gel Analyzer. […]

tubular organoids = experiment: Transport of fluorescent cargoes in tubular organoids
Method: (§1) To test permeability, media was supplemented with 20 mM HEPES plus Lucifer Yellow™ carbohydrazide potassium salt (Invitrogen, 38 μM) and Rhodamine-8 isothiocyanate dextran (Sigma, 0.5 μM), and imaged by confocal microscopy. For microinjection, 5 μM rhodamine-conjugated dextran solution in mTeSR1 was diluted 1:1 with Phenol Red Solution (0.5%, Sigma) for visualization. 2 nl was microinjected via a pulled glass capillary microneedle on a Nanoject-2 micromanipulator, and monitored in real-time by wide-field epifluorescence. For TEER, 50,000 hPSCs were plated on 24-well transwell plates (Corning) pre-coated with dilute […]™. […] TEER was measured using an EVOM 2™ device (World Precision Instruments).
as §1, with “Rhodamine-B” for “Rhodamine-8”, “0.5” for “0.5 μM),”, “5” for “5 μM”

kidney organoids = experiment: KIM-1 induction in kidney organoids treated with nephrotoxic drugs
Excerpt: (§2) FIG. 27. […] (a) Co-localization of KIM-1 antibody AKG7 with LTL or (b) with a second KIM-1 antibody (KIMlab2). […] (e) Phase contrast time course of tubules in culture. After 120 days of culture (d120), tubules were fixed and stained for LTL. (f) Whole well of a 96-well plate showing kidney organoids. Scale bars, 50 μm. Error bars, s.e.m.

epiblast spheroids = experiment: Epiblast spheroids treated with titrations of cisplatin and gentamicin (KIM-1, toxicity)
Excerpt: FIG. 20. […] Scale bars, 50 μm.
as §2

hPSCs = experiment: BRY immunofluorescence in hPSC cultures treated with CHIR in mTeSR1; conditions: 5˜M CHIR, 3D versus 2D cultures plated side-by-side
Excerpt: FIG. 2. Cavitated spheroids represent epiblast. (a) Schematic of serial passaging experiment. (b) Representative brightfield images of hPSCs in 3D cultures which were dissociated (colored frames) and passaged (matching colored arrows). Dashed arrows represent serial passages in the 3D condition. […] (c) Hematoxylin and eosin-stained sections of teratomas generated from hPSC serial 3D passages p3, p6, and p9 showing pigmented epithelium (ectoderm), cartilage (mesoderm), and glandular epithelium (endoderm). (d) Cell number (average of duplicate counts for each time point, or AVG of all time points) in 2D and 3D cultures 72 hours after plating. […] (h) Morphology and (i) quantification (n=3) of hPSC colonies cultured in mTeSR1 plus CHIR, compared to controls in mTeSR1 alone. […]
For fluorescence intensity quantifications, images were taken in a single imaging session and at identical exposures and processed identically. The number of cavitated colonies (ellipsoid with lumen) versus flat colonies (non-ellipsoid or without a lumen) was scored manually in phase contrast images of living cells, in which lumens were discerned more easily than in fixed samples. For apoptosis, cleaved caspase-3 expression was scored manually, confirmed by nuclear condensation, and divided by the total number of nuclei per wide-field epifluorescent image. […] Immunoblots were quantified using the ImageJ Gel Analyzer. […]

For protamine sulfate [PS], the 3D cavity formation (hPSC spheroids; 8 μg/ml protamine sulfate) was “strongly inhibited 3D cavity formation” and the podocalyxin localization (hPSC spheroids; 8 μg/ml protamine sulfate) was “mislocalization of podocalyxin to dispersed patches”.

For `O=C(O)CN(CCN(CC(=O)O)CC(=O)O)CC(=O)O` [EDTA], the “luminal RD signal intensity in loaded organoids” value (tubular organoids; 0.5 mM EDTA for one hour) was “decreased”.

In the case of gentamicin, the “KIM-1 expression in organoid tubules” value (kidney organoids; increasing concentrations, 36-48 hours, immunofluorescence) is reported as “expressed apical kidney injury molecule-1 (KIM-1); also recorded: observed at moderate, sub-toxic doses”, the “concentration sufficient to induce KIM-1 in kidney organoids” value (kidney organoids; kidney organoids) is reported as ~5000 µM and the “sensitivity of epiblast spheroids to drug” value (epiblast spheroids) is reported as “exhibited dose-dependent sensitivity”. For the same molecule, the “KIM-1 upregulation in epiblast spheroids” value (epiblast spheroids; any dose including 5 mM gentamicin) was “did not upregulate KIM-1; also recorded: No KIM-1 expression is observed”.

In the case of `Cc1c[nH]c(-c2cnc(NCCNc3ccc(C#N)cn3)nc2-c2ccc(Cl)cc2Cl)n1` [CHIR], the BRY expression (hPSCs) is reported as “induced higher levels of BRY expression in 3D cultures than in 2D cultures” and the spheroid formation (hPSC spheroids; CHIR added at the time of sandwiching, in mTeSR1) is reported as “inhibited spheroid formation in a dose-dependent manner”.

With `C/C1=C/C(=O)O[C@@H]2C[C@@H](CC[C@H](C)/C=C\CC1)O[C@@](O)([C@@H]1CSC(=O)N1)C2` [latrunculin (Lat)B, Latrunculin B] the “effect on RD accumulation in tubular organoids” value (tubular organoids; co-incubation, 2 μM LatB) was “significantly reduced RD accumulation”.
